Experimental data as given in patent publication US4724236A, “5,11-dihydro-6H-pyrido(2,3-B)(1,4)benzodiazepin-6-ones substituted in the 11-position, processes for preparing them and pharmaceutical compositions containing these compounds” (Karl Thomae GmbH, priority 1985, dated 1988).

Experiments:
pupil size = experiment: Mydriatic effect on the rat (increase in pupil size); format: in vivo; conditions: i.v.; printed as ED50 in Table I; method defines ED200 (dose doubling pupil diameter)
Description: 3. Mydriatic activity in the rat.
3. Mydriatic effect on the rat
The mydriasis was determined by measuring the increase in pupil size after intravenous injection of the test substance. The pupil size was measured with a microscope. The measurements were taken before and at various times (15, 45 and 75 minutes) after the injection of different doses of the substance. The results were expressed as the ED200. That is the dose which doubled the diameter of the pupil, compared with the basal value. The maximum effect was usually observed between 15 and 45 minutes after intravenous administration.

[1] = biological target: T1, muscarinic receptors (heart) (Rattus norvegicus, UniProt P10980); experiment: Binding to muscarinic receptors, heart (3H-NMS displacement); conditions: rat whole heart homogenate, pH 7.4, 30° C., 45 minutes, read-out: Receptor binding test IC50, Heart
T1 construct: The whole heart was cut up with scissors; All the organs were then homogenised; from tissue; host or cells: rat whole heart homogenate (male Sprague-Dawley)
T1 sequence (P10980 1-466): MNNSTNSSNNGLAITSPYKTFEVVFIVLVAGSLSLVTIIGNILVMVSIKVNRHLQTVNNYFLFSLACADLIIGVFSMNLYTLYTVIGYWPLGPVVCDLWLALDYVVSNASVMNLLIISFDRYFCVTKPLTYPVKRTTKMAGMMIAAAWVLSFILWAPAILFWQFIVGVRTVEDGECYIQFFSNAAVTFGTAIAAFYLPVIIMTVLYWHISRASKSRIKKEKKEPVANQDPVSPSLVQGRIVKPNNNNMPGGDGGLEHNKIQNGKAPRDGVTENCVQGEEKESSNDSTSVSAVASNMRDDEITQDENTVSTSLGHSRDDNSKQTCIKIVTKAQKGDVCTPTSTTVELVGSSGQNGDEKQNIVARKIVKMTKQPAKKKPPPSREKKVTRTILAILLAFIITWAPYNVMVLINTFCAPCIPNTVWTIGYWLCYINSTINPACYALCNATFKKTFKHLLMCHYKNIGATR
Description: (§1) B. Studies of binding to muscarinic receptors: determining the IC50 value
(§2) Male Sprague-Dawley rats weighing from 180-220 g served as organ donors. After the heart, stomach and cerebral cortex had been removed, all other procedures were carried out in ice-cold Hepes-HCl buffer (pH 7.4; 100 m molar NaCl, 10 m molar MgCl2). The whole heart was cut up with scissors. All the organs were then homogenised in a Potter apparatus.
(§3) For the binding test the homogenised organs were diluted as follows:
(§4) The homogenised organs were incubated at a specific concentration of the radioactive ligand and a series of concentrations of the non-radioactive test substances in an Eppendorf centrifugal test tube at 30° C. The period of incubation was 45 minutes. 0.3 micro-mol of ^3 H-N-methylscopolamine (^3 H-NMS) was used as the radioactive ligand. After incubation had been ended by centrifuging at 14000 g, the radioactivity in the pellet was determined. It represents the sum of specific and non-specific binding of ^3 H-NMS. The proportion of non-specific binding was defined as the radioactivity which was bound in the presence of 1 micro-mol of quinuclidinyl benzylate. Fourfold measurements were taken in each case. The IC50 values of the non-labelled test substances were determined graphically. […]

[2] = biological target: muscarinic receptors (cortex); experiment: Binding to muscarinic receptors, cerebral cortex (3H-NMS displacement); conditions: rat cerebral cortex homogenate, pH 7.4, 30° C., 45 minutes, read-out: Receptor binding test IC50, Cortex
Description: as §1, §2, §3, §4

[3] = test system: oxotremorin-induced saliva secretion; experiment: Inhibition of oxotremorin-stimulated salivation in the rat; format: in vivo; conditions: iv, 15 minutes before oxotremorin 0.083 mg/kg i.v.
Description: 2. inhibition of salivation stimulated by oxotremorin in the rat and
2. Inhibition of salivation in the rat
10 female albino rats (strain Crl:COBS-CD (SD) BR) having a body weight from 120 to 150 g, were used for each treatment group, and 24 hours before the start of the test the rats were deprived of food but given free access to drinking water.
In order to determine the muscarinic effect of oxotremorin on each of the symptoms being investigated in preliminary tests, a dosage-activity curve was drawn up with at least 3 dosages for each symptom.
When testing antimuscarinic substances, the oxotremorin dose used was that which had triggered the symptom to be influenced in 90 to 100% of the animals in the preliminary test 5.
Secretion of saliva: 0.083 mg/kg i.v.
Each antimuscarinic substance was administered intraveneously in uniformly graduated dosages 15 minutes before the administration of oxotremorin. Control groups were given the solvent and suspension agent in corresponding amounts instead of the test substance.
The results were expressed as the percentage inhibition of the oxotremorin effect (percentage of animals without the symptom in question). ED50 values were determined by the method of LITCHFIELD and WILCOXON (J. Pharmacol. Exp. Ther. 96, 99, 1949).

[4] = test system: heart rate, conscious dog; experiment: Heart rate-increasing activity (tachycardia) in the conscious dog; format: in vivo; conditions: Canis lupus familiaris, iv, dose for increase of 50 beats/minute, 3 to 5 dogs, read-out: Tachycardia (dog) ED50
Description: 1. tachycardiac effect in conscious dogs,
1. Heart rate-increasing activity in the conscious dog
The substances were injected intravenously and the heart rate was recorded using a tachygraph. After a control interval, increasing doses of the compound were administered in order to increase the heart rate. The next dose was injected when the effect of the preceding dose was no longer visible. The dosage of a substance which brought about an increase of 50 beats/minute (ED50) was determined graphically. Each substance was tested on 3 to 5 dogs.

[5] = test system: platelet clots (mesenterial vein); experiment: Effect on platelet clots in rats (electrically induced mesenterial clots, Poliwoda et al.); format: in vivo, rat
Description: Effect on platelet clots in the rats
Essentially the method described by Poliwoda, Lilli, Hagemann, Schyma, in Z. ges. exp. Med. 145, 252, (1968) was used.
Male SPF rats (Chbb:THOM) weighing from 70 to 90 g, given free access to food (Altromin®), and water up until the start of the test, were anaesthetised with Nembutal administered by intraperitoneal route (50 to 60 mg/kg of pentobarbital-Na). In order to avoid hypothermia they were kept on a heated test bench (37° C.).
After the abdomen had been opened up with a transverse cut the loop of small intestine was taken out and fixed and a mesenterial vein with a diameter of 300 microns was placed under a binocular operation microscope with ×40 magnification. A monopolar V4A steel electrode embedded in glass, with a diameter of 100 microns at the tip, was applied to the vein as stimulating cathode. The anode was applied to the same vessel opposite the cathode. Stimulation was effected with 150 volts of direct current for a period of 100 microsec. After stimulation, the observation area was continuously rinsed with warm (37° C.) physiological saline solution.
The formation and growth of the clot was monitored under the microscope over a period of 20 minutes. Throughout the entire observation period, the percentage narrowing of the diameter of the vessel by the clot was determined and noted initially at 10 second intervals and later every minute. The results were recorded in terms of time in a coordinate system. […]
The area under the curve of the animals treated with the test substance was compared with that of the control animals. The reduction of the size of the clot under the influence of the substance was determined as the percentage reduction in the average value of the area under the curve of the substance-treated animals over the entire observation period compared with the average value of the controls.
The significance of the reduction was calculated by Student's t test for independent random samples (CAVALLI-SFORZA: Biometrie, G. Fischer-Verlag, Stuttgart 1969, page 72).

SMILES | Mydriasis (rat) ED200 (dose doubling pupil diameter) (pupil size) | IC50 [1] | IC50 [2] | ED50 [3] | ED (50 beats/min increase) [4] | "area under curve" units of area, average ± SD ([5]; 1 mg/kg i.v., n = 5, 20 minutes, significant reduction, t test, p < 0.02, control 1736.0 ± 124.2) | percentage reduction compared with controls (size of clot) ([5]; 1 mg/kg i.v., n = 5, from area under curve versus controls, p < 0.02) | antithrombotic activity (in words) ([5]; rats)
O=C1Nc2cccnc2N(C(=O)CCC#CCN2CCCCC2)c2ccccc21 [Substance A, 5,11-dihydro-11-[1-oxo-6-(1-piperidinyl)-4-hexynyl]-6H-pyrido[2,3-b][1,4]benzodiazepin-6-one] | ~ 3000 micro g/kg | 120 nM | 1200 nM | 2.05 mg/kg | 0.044 mg/kg | – | – | –
O=C1Nc2cccnc2N(C(=O)CCC#CCN2CCCCCC2)c2ccccc21 [Substance B, 5,11-dihydro-11-[1-oxo-6-(hexahydro-1H-azepin-1-yl)-4-hexynyl]-6H-pyrido[2,3-b][1,4]benzodiazepin-6-one] | 2189 micro g/kg | 30 nM | 220 nM | 1.14 mg/kg | 0.028 mg/kg | – | – | –
CC(CC#CCN1CCN(C)CC1)C(=O)N1c2ccccc2C(=O)Nc2cccnc21.Cl.Cl (stereo not shown) [Substance C in form of dihydrochloride, 5,11-Dihydro-11-[1-oxo-2-methyl-6-(4-methyl-1-piperazinyl)-4-hexynyl]-6H-pyrido[2,3-b][1,4]benzodiazepin-6-one dihydrochloride] | – | – | – | – | – | 1230.0 ± 188.0 units of area | 29.2% | marked antithrombotic activity
